# Legend:
# Format in all cases: in vivo, human
# type 2 diabetes patients [1] = test: Pilot study with insulin glargine with a CGMS; conditions: compared to metformin
# type 2 diabetes patients [2] = test: Laboratory analyses in the clinical trial: HbA1c, plasma glucose, lipids, hsCRP
# Method: Test meal: On the morning of the 2nd day of the CGM, there is a standardized test meal in the trial center. This test meal (TM) consists of 95 g of whole-wheat bread, 20 g of margarine, 25 g of fruit preserves, 25 g of cheese, 200 ml of orange juice, 200 ml of milk mix with banana, strawberry or cocoa with a total of 560 Kcal. Blood is taken from the patient prior to the TM (after night-time fasting period of at least 8 hours). […] From the 1st bite, the time is measured, and after 2 h have elapsed, a 2nd blood collection is performed. During the TM and during the two hours thereafter, the patient should move as little as possible so as not to falsify the monitoring.
# Fasting blood is collected between 7 and 9 o'clock in the morning when the patient turns up at the center.
# Laboratory analyses: The blood samples for the clinical laboratory tests are analyzed in the central laboratory and the local laboratories according to standardized conditions. The central laboratory and the local laboratories provide on request corresponding documentation (e.g., normal value tables, round-robin test certificates in accordance with RiLiBÄK (Guidelines of the German Medical Association)) for the trial master file. The central laboratory is responsible for the collection, transport and analysis of the blood samples and instructs the trial center on sample management.
# The patients were treated with either metformin (MET, 1000 mg b.i.d. (n=3)) or insulin glargine (GLA) q.d. just before bedtime (n=3). […] At the start and end of the study, the HbA1c level and the plasma glucose, proinsulin and C-peptide concentrations were determined. […] All the patients received a standardized test meal on the second day of the continuous glucose monitoring for comparison of the interindividual postprandial (pp) glucose excursions.
# type 2 diabetes patients [3] = test: Parameters of beta-cell function (insulin, proinsulin, C-peptide, HOMA) fasting and 2 h after test meal
# Method: Below is a list of the various target parameters: • Protection of the β-cells by early insulin therapy • C-Peptide (fasting and 2 h pp after TM) • Proinsulin (fasting and 2 h pp after TM) • Glycemic variability: • Glycemic load • Standard deviation (SD), • MAGE • HbA1c • Anti-inflammatory action of insulin: • Biomarkers of subclinical inflammation (fasting and 2 h pp) • hsCRP, • PAI-1, • Leukocyte count • Back-up samples for determining • MMP9 • ADMA • Adiponectin • Effect on endothelial function • Endothelial function at ball of thumb using laser Doppler (O2C) • Effect on renal function • Microalbuminuria (albumin/creatinine ratio) • Serum creatinine • Risk of hypoglycemia • Hypoglycemic intervals (time<3 mmol glucose) during CGM over 48 hours (day 2+3 after TM) • Free fatty acids
# Test meal: On the morning of the 2nd day of the CGM, there is a standardized test meal in the trial center. This test meal (TM) consists of 95 g of whole-wheat bread, 20 g of margarine, 25 g of fruit preserves, 25 g of cheese, 200 ml of orange juice, 200 ml of milk mix with banana, strawberry or cocoa with a total of 560 Kcal. Blood is taken from the patient prior to the TM (after night-time fasting period of at least 8 hours). Subsequently, the TM should be eaten within 15 min. From the 1st bite, the time is measured, and after 2 h have elapsed, a 2nd blood collection is performed. During the TM and during the two hours thereafter, the patient should move as little as possible so as not to falsify the monitoring.
# • HbA1c chromatographically by HLPC (device: TOSOH A1c) • Plasma glucose by enzymatic UV test HK (device: Selectra) • Creatinine in urine by PAP test (enzyme-photometrically) (device: Selectra) • Albumin in urine (spontaneous) by immunoturbidimetric method (device: Selectra) • Microalbuminuria (calculated: albumin/creatinine ratio) • Serum creatinine enzyme-photometrically by means of creatinine PAP test (device: Selectra) • ALAT, ASAT by optimized UV method according to IFCC (device: Selectra) • Insulin by ELISA (solid-phase enzyme immunoassay; device: Anthos) • C-peptide by ELISA (solid-phase enzyme immunoassay; device: Anthos) • Proinsulin (intact) (solid-phase enzyme immunoassay; device: Anthos) • Triglycerides by GPO-PAP method (device: Selectra) • HDL cholesterol by enzymatic test (device: Selectra) • LDL cholesterol by enzymatic test (device: Selectra) • Free fatty acids by photometric method (NEFA) (device: Selektra) • hsCRP by immunoturbidimetric method (device: Selectra) • PAI-1 (plasminogen activator inhibitor active antigen) bioimmunoassay • Leukocyte count by electronic counting • Pregnancy test (urine dipstick)
# In the study in the previous examples, 75 patients (45 men, 30 women, mean age: 60.7±9.2 years) were examined, whose first diagnosis of type 2 diabetes dated back to less than 5 years and whose HbA1c level was between 6.5 and 8.5%. The patients were treated with either metformin (MET, 1000 mg b.i.d. (n=3)) or insulin glargine (GLA) q.d. just before bedtime (n=3). The insulin dose was adjusted for a target plasma glucose concentration (FPG) of ≦5.6 mmol/L according to a standardized titration algorithm. At the start and end of the study, the HbA1c level and the plasma glucose, proinsulin and C-peptide concentrations were determined. […] All the patients received a standardized test meal on the second day of the continuous glucose monitoring for comparison of the interindividual postprandial (pp) glucose excursions.
# [4] = early treatment, compared to standard treatment with MET
# [5] = per protocol, change visit 1 to visit 8, mean (SD)
# [6] = per protocol, change visit 1 to visit 8, mean (SD), unit as in Table 4
# [7] = per protocol, week 36, mean (SD)
# [8] = per protocol, week 36, mean (SD), unit as in Table 4
# [9] = per protocol, change visit 1 to visit 8, mean
substance,measurement,setting,value
Insulin glargine,control of postprandial hyperglycemia,type 2 diabetes patients [1],improved control of postprandial hyperglycemia compared to metformin
same,HbA1c level at end of study,"type 2 diabetes patients [2]; after 36 weeks of treatment, GLA vs. MET n.s.",6.4%
same,HbA1c level at start of study,type 2 diabetes patients [2]; baseline value of the 'x to y' pair,7.2%
same,control of the fasting glucose level and of the overall glycemic situation,type 2 diabetes patients [2]; [4],more effective control
same,Triglycerides - change,type 2 diabetes patients [2]; [5],−0.2 (1.8) mmol/l
same,HDL - change,type 2 diabetes patients [2]; [6],0.1 (0.2) mmol/l
same,HbA1c - change,type 2 diabetes patients [2]; [6],−0.8 (0.7) %
same,LDL - change,type 2 diabetes patients [2]; [6],−0.1 (0.7) mmol/l
same,"Plasma glucose - change, 2 h after test meal",type 2 diabetes patients [2]; [6],−2.8 (3.2) mmol/l
same,"Plasma glucose - change, Fasting",type 2 diabetes patients [2]; [6],−3.1 (2.5) mmol/l
same,Total chol. - change,type 2 diabetes patients [2]; [6],−0.04 (0.8) mmol/l
same,hsCRP - change,type 2 diabetes patients [2]; [6],0.1 (3.0) mg/l
same,Triglycerides - visit 8,type 2 diabetes patients [2]; [7],2.2 (2.0) mmol/l
same,HDL - visit 8,type 2 diabetes patients [2]; [8],1.3 (0.3) mmol/l
same,HbA1c - visit 8,type 2 diabetes patients [2]; [8],6.4 (0.4) %
same,LDL - visit 8,type 2 diabetes patients [2]; [8],3.1 (0.8) mmol/l
same,"Plasma glucose - visit 8, 2 h after test meal",type 2 diabetes patients [2]; [8],8.3 (2.5) mmol/l
same,"Plasma glucose - visit 8, Fasting",type 2 diabetes patients [2]; [8],6.1 (1.1) mmol/l
same,Total chol. - visit 8,type 2 diabetes patients [2]; [8],5.2 (1.0) mmol/l
same,hsCRP - 8th visit,type 2 diabetes patients [2]; [8],3.1 (2.9) mg/l
same,reduction in the FPG level (Δ),"type 2 diabetes patients [2]; start to end of study (36 weeks), GLA vs. MET p<0.001",3.1 ± 2.5 mmol/L
same,ratio of proinsulin to C-peptide,"type 2 diabetes patients [3]; after treatment, indicating improvement in beta-cell function",significant reduction
same,beta-cell function,type 2 diabetes patients [3]; [4],improvement in beta-cell function
same,"Insulin-C-peptide ratio - change, 2 h after test meal",type 2 diabetes patients [3]; [9],−24587.4
same,"Insulin-C-peptide ratio - change, Fasting",type 2 diabetes patients [3]; [9],46799.3
same,"Proinsulin-C-peptide ratio - change, 2 h after test meal",type 2 diabetes patients [3]; [9],−2496.6
same,"Proinsulin-C-peptide ratio - change, Fasting",type 2 diabetes patients [3]; [9],−1174.8
same,HOMA - change,type 2 diabetes patients [3]; [5],77.2 (98.0)
same,"Insulin-proinsulin ratio - change, 2 h after test meal",type 2 diabetes patients [3]; [5],8.2 (9.4)
same,"Insulin-proinsulin ratio - change, Fasting",type 2 diabetes patients [3]; [5],16.4 (12.4)
same,"C-peptide - change, 2 h after test meal",type 2 diabetes patients [3]; [6],−0.6 (2.4) nmol/l
same,"C-peptide - change, Fasting",type 2 diabetes patients [3]; [6],−1.2 (1.1) nmol/l
same,"Insulin - change, 2 h after test meal",type 2 diabetes patients [3]; [6],6.5 (38.4) mU/l
same,"Insulin - change, Fasting",type 2 diabetes patients [3]; [6],2.7 (6.7) mU/l
same,"Proinsulin - change, 2 h after test meal",type 2 diabetes patients [3]; [6],−11.1 (26.8) pmol/l
same,"Proinsulin - change, Fasting",type 2 diabetes patients [3]; [6],−7.6 (10.8) pmol/l
same,"Insulin-C-peptide ratio - visit 8, 2 h after test meal","type 2 diabetes patients [3]; per protocol, week 36, mean",59822.8
same,"Insulin-C-peptide ratio - visit 8, Fasting","type 2 diabetes patients [3]; per protocol, week 36, mean",80748.4
same,"Proinsulin-C-peptide ratio - visit 8, 2 h after test meal","type 2 diabetes patients [3]; per protocol, week 36, mean",3578.2
same,"Proinsulin-C-peptide ratio - visit 8, Fasting","type 2 diabetes patients [3]; per protocol, week 36, mean",3537.8
same,HOMA - visit 8,type 2 diabetes patients [3]; [7],127.9 (99.3)
same,"Insulin-proinsulin ratio - visit 8, 2 h after test meal",type 2 diabetes patients [3]; [7],20.7 (11.8)
same,"Insulin-proinsulin ratio - visit 8, Fasting",type 2 diabetes patients [3]; [7],24.5 (11.7)
same,"C-peptide - visit 8, 2 h after test meal",type 2 diabetes patients [3]; [8],6.7 (3.1) nmol/l
same,"C-peptide - visit 8, Fasting",type 2 diabetes patients [3]; [8],1.6 (0.9) nmol/l
same,"Insulin - visit 8, 2 h after test meal",type 2 diabetes patients [3]; [8],62.6 (51.8) mU/l
same,"Insulin - visit 8, Fasting",type 2 diabetes patients [3]; [8],14.6 (8.8) mU/l
same,"Proinsulin - visit 8, 2 h after test meal",type 2 diabetes patients [3]; [8],26.8 (29.0) pmol/l
same,"Proinsulin - visit 8, Fasting",type 2 diabetes patients [3]; [8],5.4 (5.0) pmol/l
